Data on 21 molecules can be found in article PMC2279149, “Mouse N-acetyltransferase type 2, the homologue of human N-acetyltransferase type 1” (Biochemical Pharmacology, 2008).

SMILES strings stand for the structures. Where two headings read alike, the source gives them in different places. Where only a bound is given, the exact number is not on record here.

For data set [1], the target named is T1, mouse Nat2 (Mus musculus, UniProt P50295).
T1 construct: The mouse Nat2 open-reading frame [22] was sub-cloned into pET28b(+); hexa-histidine tag (His-tag, from pET28b(+)) (N, cleaved yes); made in house; host or cells: Escherichia coli Rosetta(DE3)pLysS
T1 sequence (P50295 1-290): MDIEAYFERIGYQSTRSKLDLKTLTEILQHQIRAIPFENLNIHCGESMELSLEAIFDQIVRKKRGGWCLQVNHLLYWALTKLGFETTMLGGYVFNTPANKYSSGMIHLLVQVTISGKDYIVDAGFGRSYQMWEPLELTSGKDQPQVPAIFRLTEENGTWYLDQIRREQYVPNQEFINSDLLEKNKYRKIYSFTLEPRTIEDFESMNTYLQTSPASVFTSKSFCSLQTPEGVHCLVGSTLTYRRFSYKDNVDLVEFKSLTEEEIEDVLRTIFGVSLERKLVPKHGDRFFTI
As to the kind of experiment: Substrate specific activity of mouse Nat2 (rate of CoA production, DTNB). In kind it is biochemical. The settings on record: substrate 500 μM, AcCoA 400 μM, 25 °C, pH 8.0. The method, then: The rate of production of the free thiol Coenzyme A by NAT, in the presence of a range of known NAT acetyl-acceptor substrates, was determined by using Ellman's reagent, 5,5′-dithio-bis(2-nitrobenzoic acid) (DTNB) as previously described [[2,26]]. The substrate (500 μM) and purified recombinant NAT were pre-incubated (25 °C, 5 min) in 96-well flat-bottomed polystyrene plates (Costar®, Corning Inc.) in 20 mM Tris–HCl (pH 8.0). AcCoA (400 μM) was added to start the reaction in a final volume of 100 μL. The reaction was quenched with the addition of 25 μL of guanidine–HCl solution (6.4 M guanidine–HCl, 0.1 M Tris–HCl (pH 7.3)) containing 5 mM DTNB. The absorbance at 405 nm was measured on a plate-reader (Sunrise, Tecan). Assay buffer was used to replace substrate, AcCoA or NAT for control reactions. The amount of CoA produced in the assay was determined in comparison with a CoA standard curve.
Substrate abbreviations used for the substrate selectivity assays are as follows: aniline (ANL), 4-aminobenzoic acid (PABA), 4-aminosalicylic acid (4AS), 5-aminosalicylic acid (5AS), 4-chloroaniline (CLA), 4-bromoaniline (BRA), 4-iodoaniline (IOA), 4-methoxyanline (ANS), 4-ethoxyaniline (EOA), 4-butoxyanline (BOA), 4-hexyloxyaniline (HOA), 4-phenoxyaniline (POA), 4-aminoveratrole (4AV), 2-aminofluorene (2AF), 4-aminobenzoyl-L-glutamate (pABGlu), sulfamethazine (SMZ), procainamide (PRO), 4-aminopyridine (APY), isoniazid (INH), hydralazine (HDZ) and phenylhydrazine (PHZ). The stock concentration of substrate was 100 mM dissolved in DMSO, such that the final concentration of DMSO was less than 5% in the assays. DMSO only controls were carried out.
Fig. 2 Comparison of the substrate specific activity profiles of mouse Nat2, human NAT1 and human NAT2. The substrate specific activity profiles for mouse Nat2 (grey bars), human NAT1 (cross-hatched bars) and human NAT2 (black bars) are shown. The activity of mouse Nat2 was determined by measuring the rate of CoA production, as described in Section 2. Purified mouse Nat2 (0.125 μg) was incubated with arylamine substrate (each at 500 μM) and AcCoA (400 μM) in assay buffer (20 mM Tris–HCl (pH 8.0)) containing 0.5% (v/v) DMSO at 25 °C. The specific activities were determined from the linear initial rates of reaction. All measurements were performed in triplicate and are expressed as mean ± standard deviation relative to the most rapidly acetylated substrate. The human NAT1 and NAT2 data are taken from. The abbreviations are defined in Section 2.
The rate of hydrolysis of AcCoA was measured in the presence of a wide range of acetyl-acceptors (known NAT substrates, at 500 μM) and mouse Nat2 as described in the Methods section and Supplementary Fig. 1. The assays were performed in the presence of 5% (v/v) DMSO.

Data set [2] concerns the target T1, mouse Nat2. As to the kind of experiment: Inhibition of mouse Nat2 acetylation of PABA (colorimetric DMAB assay). In kind it is biochemical. The method, then:
The rates of arylamine acetylation by NATs were determined colorimetrically as previously described, but with minor modifications. Each assay contained the enzyme, arylamine substrate (see each figure legends for concentrations) and AcCoA (400 μM) in a total volume of 100 μL in assay buffer (20 mM Tris–HCl (pH 8.0), 1 mM DTT). Initially, the enzyme and substrate mixtures were pre-incubated at 25 °C for 5 min and AcCoA was added to start the reaction. The reaction was quenched using 20% (w/v) trichloroacetic acid (TCA) at different time intervals. The stopped reaction was centrifuged (16,000 × […], 10 min) to pellet the precipitated proteins. The stopped reaction mixture (200 μL) was added to 800 μL of 5% (w/v) 4-(N,N-dimethylamino)benzaldehyde (DMAB) in 9:1 acetonitrile:water to develop the colour. The absorption at 450 nm was measured with a Hitachi U-2001 UV–vis spectrophotometer, with the amount of residual substrate in the reaction was determined by comparison with a standard curve.
The inhibitory effect of steroids on the rate of acetylation of arylamines by mouse Nat2 was measured by using the colorimetric DMAB assay as described in Section 2. Test compounds (50 μM, 2% DMSO unless specified) were pre-incubated with recombinant mouse Nat2 (3 ng) and PABA (75 μM) for 10 min at room temperature. AcCoA (400 μM) was added to start the reaction and the reaction mixture was incubated at 37 °C. The total reaction volume was 100 μL. Reactions were stopped at various time intervals by the addition of 100 μL of 20% (w/v) TCA. The colour was developed and measured as described in Section 2. The linear initial rate of reaction was determined and the percentage inhibition was calculated relative to the control activity measured without the inhibitor. All measurements were performed in triplicate and are expressed as mean ± standard deviation. *2% (v/v) ethanol **5% (v/v) DMSO used to dissolve the compounds in the assay.

Data set [3] has as its target T1, mouse Nat2. Briefly: 1D 1H NMR titration of mouse Nat2 with ligand. In kind it is binding. The settings on record: 8 equivalents of bisphenol A; 20 °C, pH 7.0. Here is the method:
1D ^1H NMR spectra for hamster and mouse Nat2 were collected at 20 °C using a jump-return sequence. This sequence enabled the observation of H^N peaks which exchange to a significant extent with H2O. Spectra were collected using a 600 MHz spectrometer using a sweep width of 12,500 Hz. Unlabelled hamster and mouse Nat2 were used at a concentration of 10 mg/mL in the buffer described above. The titration of mouse Nat2 with bisphenol A was carried out by stepwise addition of small volumes (5–20 μL) of a concentrated solution of bisphenol A (100 mM in deuterated DMSO) to the mouse Nat2 solution in the NMR tube. The highest concentration of DMSO in the sample used was 2.8%. DMSO alone had no effect on the NMR spectrum of mouse Nat2 using concentrations up to 5%.

On the set-up of data set [4]: method as in PMID 11502892. The following applies: after a soy-based meal; cited from earlier work.
For data set [5] the following is noted: cited from earlier work.
Setting [6] is: steroidogenic compounds, inhibitor 1–500 μM, recombinant mouse Nat2 3 ng, PABA 75 μM, AcCoA 400 μM, 37 °C, read-out: IC50.
[7] abbreviates: xenobiotic oestrogens, recombinant mouse Nat2 3 ng, PABA 75 μM, AcCoA 400 μM, 37 °C, read-out: IC50 mNAT2.

Turning to `Nc1ccc2c(c1)Cc1ccccc1-2` [2AF, 2-aminofluorene], the “Specific activity of mouse Nat2 with substrate” value (“Specific activity of mouse Nat2” for short) in data set [1] was “high specific activities”; in data set [1] (listed as 2-aminofluorene), “readily acetylates”. In the case of `Nc1ccc(C(=O)O)c(O)c1` [4AS, 4-aminosalicylic acid], the “Specific activity of mouse Nat2” value in data set [1] is reported as “high specific activities”. Regarding `Nc1ccc(O)c(C(=O)O)c1` [5AS, 5-aminosalicylic acid], the “Specific activity of mouse Nat2” value in data set [1] was “high specific activities”. Broadly, the IC50 is the concentration that gives 50% inhibition. As for `CC(=O)[C@@]1(O)CC[C@H]2[C@@H]3CCC4=CC(=O)CC[C@]4(C)[C@H]3CC[C@@]21C` [17-Hydroxy-progesterone], in data set [2] (setting [6]), the IC50 is more than 500 µM. Same read-out and setting: with `C[C@]12CC[C@@H]3c4ccc(O)cc4CC[C@H]3[C@@H]1CC[C@@H]2O` [17-Hydroxy-β-estradiol] the figure was 55 ± 5 µM. As to `C[C@H]1CCC[C@H](O)CCC/C=C/c2cc(O)cc(O)c2C(=O)O1` [Alpha-Zearalenol], the IC50 in data set [2] (setting [7]) was 70 ± 10 µM. As to `C[C@]12CCC(=O)C=C1CC[C@@H]1[C@@H]2CC[C@]2(C)C(=O)CC[C@@H]12` [Androsteinedione], the IC50 in data set [2] (setting [6]) was more than 500 µM. As for `C[C@H]1CCC[C@@H](O)CCC/C=C/c2cc(O)cc(O)c2C(=O)O1` [Beta-Zearalenol], the IC50 in data set [2] (setting [7]) was found to be 450 ± 10 µM. On to `CC(C)(c1ccc(O)cc1)c1ccc(O)cc1` [Bisphenol A], for which the IC50 in data set [2] (setting [7]) is 290 ± 10 µM. In addition, in data set [3], the “Change in chemical shift of histidine peak 1 (downfield)” value is approximately 0.12 ppm and the “Change in chemical shift of histidine peak 4 (upfield)” value is reported as approximately 0.08 ppm. For `C[C@]12CC[C@@H]3c4ccc(O)cc4CC[C@H]3[C@@H]1CCC2=O` [Estrone], in data set [2] (setting [6]), the IC50 is 370 ± 10 µM. With `O=c1c(-c2ccc(O)cc2)coc2cc(O)cc(O)c12` [Geni stein, genistein], the midpoint of inhibition in data set [2], the IC50, lay at 45 ± 5 µM. Besides, the Circulating plasma concentration in data set [4] is not above 18 µM.

Regarding `NNc1nncc2ccccc12` [HDZ, hydralazine], the “Specific activity of mouse Nat2” value in data set [1] is listed as “low specific activities”. The same measure, in the same setting: next, `NNC(=O)c1ccncc1` [INH, isoniazid]: “low specific activities”; `Nc1ccc(C(=O)O)cc1` [PABA, 4-aminobenzoic acid]: “high specific activities”; `NNc1ccccc1` [PHZ, phenylhydrazine]: “low specific activities”. For the molecule `CC(=O)[C@H]1CC[C@H]2[C@@H]3CC=C4C[C@@H](O)CC[C@]4(C)[C@H]3CC[C@]12C` [Pregnelone], the IC50 in data set [2] (setting [6]) is more than 100 µM.

On to `CC/C(=C(\c1ccccc1)c1ccc(OCCN(C)C)cc1)c1ccccc1` [Tamoxifen], for which the Intratumoral level entry in data set [5] is “micromolar concentrations”. Take `C[C@]12CC[C@H]3[C@@H](CCC4=CC(=O)CC[C@@]43C)[C@@H]1CC[C@@H]2O` [Testosterone]: in data set [2] (setting [6]), the IC50 was more than 500 µM. As to `C[C@H]1CCCC(=O)CCC/C=C/c2cc(O)cc(O)c2C(=O)O1` [Zearalenone], in data set [2], half-maximal inhibition (IC50) was put at 220 ± 10 µM. Regarding `CCN(CC)CCNC(=O)c1ccc(N)cc1` [procainamide], the “Specific activity of mouse Nat2” value in data set [1] was “low specific activities”.

As to `Cc1cc(C)nc(NS(=O)(=O)c2ccc(N)cc2)n1` [sulfamethazine], in data set [1], the “Specific activity of mouse Nat2” value is “low specific activities”.
